Test results as given in patent USRE47689E1, “Compounds for treating spinal muscular atrophy” (PTC Therapeutics, Inc., priority 2011, dated 2019).

Tests used:
[1] = test system: SMN2 minigene (full length SMN2 minigene mRNA containing SMN2 exon 7); assay: SMN2 minigene mRNA splicing RT-qPCR assay in cultured cells; format: cell-based, human; conditions: Homo sapiens, HEK293-H; HEK293H cells stably transfected with SMN2-A minigene; 24 hours; 7-point concentration curve; 1.5-fold relative to vehicle-treated cells; read-out: EC1.5x for production of full length SMN2 mRNA
Method in brief: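 HEK293H cells stably carrying the SMN2-A minigene treated 24 h at 37° C with compound (DMSO, 200× stock), then lysed. Multiplex RT-qPCR (SMN primers 0.4 μM final; 40 cycles) measures full-length exon 7-containing minigene mRNA, normalized to GAPDH and to vehicle; EC1.5x derived and binned by stars.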

Smn protein = Smn protein assay in cultured cells (SMN HTRF); format: cell-based, human; conditions: 48 hours; for EC1.5x (concentration giving 1.5-fold Smn protein increase): SMA Type 1 patient fibroblast cells (GM03813), 7-point concentration curve, SMN HTRF, concentration producing 1.5 times Smn protein vs DMSO vehicle control, read-out: EC1.5x for Smn protein expression; for maximum fold (Fold) increase of Smn protein: SMA patient fibroblast cells, 7-point concentration data, fold increase relative to vehicle control (SMN HTRF)
Method in brief: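 Lysates in RIPA with protease inhibitors are incubated overnight at room temperature with HTRF anti-SMN antibodies. EC1.5x is derived from fold increase in ΔF over vehicle.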

Row | Structure (SMILES) | EC (1.5-fold) [1] [µM] | EC1.5x (concentration giving 1.5-fold Smn protein increase) (Smn protein) [nM] | maximum fold (Fold) increase of Smn protein (Smn protein) | melting point [°C]
1 | Cc1cn2cc(-c3cc4ccc(OC5CCN(CCO)CC5)cc4oc3=O)nc2c(C)n1 [Compound 899, 3-(6,8-dimethylimidazo[1,2-a]pyrazin-2-yl)-7-{[1-(2-hydroxyethyl)piperidin-4-yl]oxy}-2H-chromen-2-one] | < 0.1 | < 300 | ***** (fold increase >1.65) | 165 to 168
2 | CCN1CCN(c2ccc3cc(-c4cn5cc(C)ccc5n4)c(=O)oc3c2)CC1 [Compound 95, 7-(4-ethylpiperazin-1-yl)-3-(6-methylimidazo[1,2-a]pyridin-2-yl)-2H-chromen-2-one] | 1 to 3 | < 300 | **** (fold increase between >1.5 and ≤1.65) | 266 to 269
3 | Cc1cn2cc(-c3cc4ccc(N5CCN[C@@H](C)C5)cc4oc3=O)nc2s1 [Compound 232, 3-(2-methylimidazo[2,1-b][1,3]thiazol-6-yl)-7-[(3S)-3-methylpiperazin-1-yl]-2H-chromen-2-one] | 0.3 to 1 |  | * (maximum fold increase of ≤1.2) | 177 to 182
4 | Cc1cc(Cl)c2nc(-c3cc4ccc(N5C[C@@H](C)N[C@@H](C)C5)cc4oc3=O)cn2c1 [Compound 342, 3-(8-chloro-6-methylimidazo[1,2-a]pyridin-2-yl)-7-[(3R,5S)-3,5-dimethylpiperazin-1-yl]-2H-chromen-2-one] | 0.1 to 0.3 |  | ** (fold increase between >1.2 and ≤1.35) | 258 to 263
5 | Cc1nc(Cl)cn2cc(-c3cc4ccc(N5CCN[C@H](C)C5)cc4oc3=O)nc12 [Compound 699, 3-(6-chloro-8-methylimidazo[1,2-a]pyrazin-2-yl)-7-[(3R)-3-methylpiperazin-1-yl]-2H-chromen-2-one] | 0.1 to 0.3 | 300 to 1000 | ***** (fold increase >1.65) | 265 to 268
6 | CN(C)c1ccc(-c2cc3ccc(N4CCNCC4)cc3oc2=O)cn1 [Compound 547, 3-[6-(dimethylamino)pyridin-3-yl]-7-(piperazin-1-yl)-2H-chromen-2-one] | 3 to 30 |  | * (maximum fold increase of ≤1.2) | 179 to 181
7 | O=c1oc2cc(N3CCCNCC3)cc(F)c2cc1-c1cn2cccnc2n1 [Compound 336, 7-(1,4-diazepan-1-yl)-5-fluoro-3-(imidazo[1,2-a]pyrimidin-2-yl)-2H-chromen-2-one] | 0.3 to 1 |  | * (maximum fold increase of ≤1.2) | 305 to 307
8 | CN1CCN(c2ccc3cc(-c4nc5c(Cl)cccc5s4)c(=O)oc3c2)CC1 [Compound 17, 3-(4-chloro-1,3-benzothiazol-2-yl)-7-(4-methylpiperazin-1-yl)-2H-chromen-2-one] | 0.3 to 1 |  | ** (fold increase between >1.2 and ≤1.35) | 256 to 260
9 | CCN1CCN(c2ccc3cc(-c4cn5cc(C)nc(C)c5n4)c(=O)oc3c2)CC1 [Compound 621, 3-(6,8-dimethylimidazo[1,2-a]pyrazin-2-yl)-7-(4-ethylpiperazin-1-yl)-2H-chromen-2-one] | < 0.1 | < 300 | ***** (fold increase >1.65) | 215 to 217
10 | Cc1cn2cc(-c3cc4ccc(N5CCN(C6CCC6)CC5)cc4oc3=O)cc2c(C)n1 [Compound 814, 7-(4-cyclobutylpiperazin-1-yl)-3-(1,3-dimethylpyrrolo[1,2-a]pyrazin-7-yl)-2H-chromen-2-one] | < 0.1 | < 300 | ***** (fold increase >1.65) | 217 to 220
11 | Cc1cc(Cl)c2nc(-c3cc4ccc(N5CCN(C)CC5)cc4oc3=O)cn2c1 [Compound 343, 3-(8-chloro-6-methylimidazo[1,2-a]pyridin-2-yl)-7-(4-methylpiperazin-1-yl)-2H-chromen-2-one] | 0.1 to 0.3 |  | * (maximum fold increase of ≤1.2) | 245 to 253
12 | Cc1cn2cc(-c3cc4ccc(N5C[C@H](O)[C@@H](N(C)C)C5)cc4oc3=O)nc2c(C)n1 [Compound 738, 7-[(3S,4S)-3-(dimethylamino)-4-hydroxypyrrolidin-1-yl]-3-(6,8-dimethylimidazo[1,2-a]pyrazin-2-yl)-2H-chromen-2-one] | < 0.1 | < 300 | ***** (fold increase >1.65) | 270 to 272
13 | C[C@@H]1CN(c2ccc3cc(-c4cn5cccnc5n4)c(=O)oc3c2)CCN1 [Compound 169, 3-(imidazo[1,2-a]pyrimidin-2-yl)-7-[(3R)-3-methylpiperazin-1-yl]-2H-chromen-2-one] | 0.3 to 1 | 1000 to 3000 | *** (fold increase between >1.35 and ≤1.5) | 285 to 287
14 | Cc1nccn2cc(-c3cc4ccc(N5CCCNCC5)cc4oc3=O)cc12 [Compound 587, 7-(1,4-diazepan-1-yl)-3-(1-methylpyrrolo[1,2-a]pyrazin-7-yl)-2H-chromen-2-one] | < 0.1 | < 300 | **** (fold increase between >1.5 and ≤1.65) | 210 to 213
15 | Cc1cn2cc(-c3cc4ccc(N5CC[C@@H](N(C)C)C5)cc4oc3=O)cc2cn1 [Compound 693, 7-[(3R)-3-(dimethylamino)pyrrolidin-1-yl]-3-(3-methylpyrrolo[1,2-a]pyrazin-7-yl)-2H-chromen-2-one] | < 0.1 | 300 to 1000 | **** (fold increase between >1.5 and ≤1.65) | 206 to 208
16 | Cc1cn2cc(-c3cc4ccc(N5C[C@@H]6CCCN(CCO)[C@@H]6C5)cc4oc3=O)nc2c(C)n1 [Compound 796, 3-(6,8-dimethylimidazo[1,2-a]pyrazin-2-yl)-7-[(4aS,7aS)-1-(2-hydroxyethyl)octahydro-6H-pyrrolo[3,4-b]pyridin-6-yl]-2H-chromen-2-one] | < 0.1 | 300 to 1000 | **** (fold increase between >1.5 and ≤1.65) | 200 to 210
17 | Cc1cc(F)c2nc(-c3cc4ccc(N5CCNC6(CCCC6)C5)cc4oc3=O)cn2c1 [Compound 599, 7-(6,9-diazaspiro[4.5]dec-9-yl)-3-(8-fluoro-6-methylimidazo[1,2-a]pyridin-2-yl)-2H-chromen-2-one] | 0.1 to 0.3 |  | *** (fold increase between >1.35 and ≤1.5) | 236 to 242
18 | Cc1cn2cc(-c3cc4ccc(N5CCC(N6CCOCC6)C5)cc4oc3=O)cc2c(C)n1 (centres unmarked) [Compound 757, 3-(1,3-dimethylpyrrolo[1,2-a]pyrazin-7-yl)-7-[3-(morpholin-4-yl)pyrrolidin-1-yl]-2H-chromen-2-one] | 0.3 to 1 | 1000 to 3000 | *** (fold increase between >1.35 and ≤1.5) | 118 to 122
19 | COc1ccc(-c2cc3c(F)cc(N4CCN[C@H](C)C4)cc3oc2=O)cc1OC [Compound 416, 3-(3,4-dimethoxyphenyl)-5-fluoro-7-[(3R)-3-methylpiperazin-1-yl]-2H-chromen-2-one] | 1 to 3 |  | ** (fold increase between >1.2 and ≤1.35) | 115 to 117
